Converted amounts (≈) assume the structure as drawn. Structures can show the parent of a compound that is named as a salt. Where two headings read alike, the source gives them in different places.
Tests used:
Format in all cases: physicochemical
[1] = Solubility of crystalline NMS-E354 salts and free base in 0.9% NaCl solution; details: for Aqueous solubility value: stirred 4 hours at RT, excess solid (target 10 mg/ml), filtered, HPLC
Protocol: The determination of solubility of NMS-E354 salts has been performed by means of the following procedure: known amounts of crystalline NMS-E354 salts or free base stirred for 4 hours at RT in 0.9% NaCl solution, in condition of excess solid considering a target concentration of 10 mg/ml. The obtained preparations were filtered and analysed by means of HPLC.

[2] = Hygroscopicity test by Dynamic Vapour Sorption (DVS); details: RH modifications up to 90% at 25° C.
Source text: The water uptake of crystalline NMS-E354 salts and free base was investigated by submitting a sample of such substances to a hygroscopicity test by means of a DVS 1000 (SMS). The apparatus is a “controlled atmosphere microbalance” where the weighed sample is exposed to programmed variations of the relative humidity (RH) at a constant and controlled temperature. The measured parameters (weight, time and RH), reported in Excel worksheets, allow obtaining hygroscopicity curves over the tested RH range. Sorption/desorption cycles between 0% and 90% RH can be performed at controlled temperature of 25° C. Progressive variations of RH can be of 10% and 3%; they are operated by the software at the equilibration of the sample weight. This condition can be defined at a constant rate of percent weight variation e.g. 0.005%/min.

[3] = Solubility of NMS-E354 free base in water and early formulation vehicles
Protocol: The solubility of the NMS-E354 free base is about 4 mg/ml in 10% Polysorbate 80 in 5% dextrose solution, about 7 mg/ml in aqueous 50% Polyethylene Glycol 400 in 5% dextrose solution and about 1÷2 mg/ml when formulated as hydrochloride or phosphate in situ salt. NMS-E354 free base was also suitable for aqueous hypromellose suspensions at about 10 mg/ml. Therefore, the obtained free base was initially formulated as cosolvent based aqueous solution, in situ salt or hypromellose suspension in order to allow administration during early pharmacological and toxicological evaluation for early pharmacological studies.

SMILES	Aqueous solubility value [1] [µg/mL]	hygroscopicity [2]	solubility in 0.9% NaCl solution [1] [µg/mL]	Aqueous solubility value ([1]; listed as Free base) [µg/mL]	solubility ([3]; 10% Polysorbate 80 in 5% dextrose solution, aqueous with cosolvent or surfactant or cyclodextrin, read-out: solubility) [µg/mL]	solubility ([3]; aqueous 50% Polyethylene Glycol 400 in 5% dextrose solution, aqueous with cosolvent or surfactant or cyclodextrin, read-out: solubility) [µg/mL]	solubility ([3]; hydrochloride or phosphate in situ salt formulation, formulated as hydrochloride or phosphate in situ salt, read-out: solubility) [µg/mL]	solubility ([3]; water, read-out: aqueous solubility) [µg/mL]
NC(=O)c1cc(-c2ccnc(N)n2)[nH]c1-c1ccc(Cl)cc1Cl [Hemifumarate salt, 5-(2-amino-pyrimidin-4-yl)-2-(2,4-dichloro-phenyl)-1H-pyrrole-3-carboxylic acid amide]	20	low hygroscopicity	–	–	–	–	–	–
NC(=O)c1cc(-c2ccnc(N)n2)[nH]c1-c1ccc(Cl)cc1Cl [Maleate salt, 5-(2-amino-pyrimidin-4-yl)-2-(2,4-dichloro-phenyl)-1H-pyrrole-3-carboxylic acid amide]	70	low hygroscopicity	70	–	–	–	–	–
NC(=O)c1cc(-c2ccnc(N)n2)[nH]c1-c1ccc(Cl)cc1Cl [Mesylate salt, 5-(2-amino-pyrimidin-4-yl)-2-(2,4-dichloro-phenyl)-1H-pyrrole-3-carboxylic acid amide]	120	low hygroscopicity	–	–	–	–	–	–

The remaining lines, values ahead:

Aqueous solubility value [1] [µg/mL]	hygroscopicity [2]	solubility in 0.9% NaCl solution [1] [µg/mL]	Aqueous solubility value ([1]; listed as Free base) [µg/mL]	solubility ([3]; 10% Polysorbate 80 in 5% dextrose solution, aqueous with cosolvent or surfactant or cyclodextrin, read-out: solubility) [µg/mL]	solubility ([3]; aqueous 50% Polyethylene Glycol 400 in 5% dextrose solution, aqueous with cosolvent or surfactant or cyclodextrin, read-out: solubility) [µg/mL]	solubility ([3]; hydrochloride or phosphate in situ salt formulation, formulated as hydrochloride or phosphate in situ salt, read-out: solubility) [µg/mL]	solubility ([3]; water, read-out: aqueous solubility) [µg/mL]	SMILES
–	low hygroscopicity	–	<10	~4000 (≈ 11.5 mM)	~7000 (≈ 20.1 mM)	1000 to 2000	< 10	NC(=O)c1cc(-c2ccnc(N)n2)[nH]c1-c1ccc(Cl)cc1Cl [NMS-E354, 5-(2-amino-pyrimidin-4-yl)-2-(2,4-dichloro-phenyl)-1H-pyrrole-3-carboxylic acid amide]
150	low hygroscopicity	150	–	–	–	–	–	NC(=O)c1cc(-c2ccnc(N)n2)[nH]c1-c1ccc(Cl)cc1Cl [Sulfate salt, 5-(2-amino-pyrimidin-4-yl)-2-(2,4-dichloro-phenyl)-1H-pyrrole-3-carboxylic acid amide]

From patent US8658662B2, “Crystalline CDC7 inhibitor salts” (Nerviano Medical Sciences S.r.l., priority 2009, dated 2014)
